Assay results: ChEMBL document CHEMBL5674860, “Optimized Dual-Glo Assay to identify co-culture-induced drug vulnerabilities in 3D CRC models” (2024)

Tests used:
Format in all cases: functional, Homo sapiens
Design in all cases: dose or concentration left out as unconfirmed
Colon cancer organoid [1] = assay: Optimized Dual-Glo assay to identify co-culture induced drug vulnerabilities using donated chemical probes and chemogenomics kinase set in O06 CRC organoid and F06 CAF mono and co-culture. […] Cell viability is reported both mono and co-culture models.
Colon cancer organoid [2] = assay: Optimized Dual-Glo assay to identify co-culture induced drug vulnerabilities using donated chemical probes and chemogenomics kinase set in O14 CRC organoid and F14 CAF mono and co-culture. […] Cell viability is reported both mono and co-culture models.
Colon cancer organoid [3] = assay: Optimized Dual-Glo assay to identify co-culture induced drug vulnerabilities using donated chemical probes and chemogenomics kinase set in O20 CRC organoid and F20 CAF mono and co-culture. […] Cell viability is reported both mono and co-culture models.
[4] = Culture type Co-Culture, Transduced with Lucferase2-P2A-EGFP lentivirus
[5] = Culture type Co-Culture, Transduced with Renilla-dsRed lentivirus
[6] = Culture type Mono-Culture, Transduced with Lucferase2-P2A-EGFP lentivirus
[7] = Culture type Mono-Culture, Transduced with Renilla-dsRed lentivirus

| Compound | Cell Viability (Colon cancer organoid [1]; [4]) [%] | Cell Viability (Colon cancer organoid [1]; [5]) [%] | Cell Viability (Colon cancer organoid [1]; [6]) [%] | Cell Viability (Colon cancer organoid [1]; [7]) [%] | Cell Viability (Colon cancer organoid [2]; [4]) [%] | Cell Viability (Colon cancer organoid [2]; [5]) [%] | Cell Viability (Colon cancer organoid [2]; [6]) [%] | Cell Viability (Colon cancer organoid [2]; [7]) [%] | Cell Viability (Colon cancer organoid [3]; [4]) [%] | Cell Viability (Colon cancer organoid [3]; [5]) [%] | Cell Viability (Colon cancer organoid [3]; [6]) [%] | Cell Viability (Colon cancer organoid [3]; [7]) [%] |
| --- | --- | --- | --- | --- | --- | --- | --- | --- | --- | --- | --- | --- |
| O=C(CNCc1cc2ccccc2[nH]1)N[C@H]1CC[C@@H](c2nc3ccccc3[nH]2)CC1 | 85.8975 | 91.436 | 103.293 | 98.1178 | 97.4401 | 97.7804 | 95.7204 | 104.778 | 100.625 | 124.153 | 84.865 | 96.1375 |
| Cn1c(-c2csc(C3CCN(CC4=NC5N=CC=CC5N4)CC3)n2)nc2ccccc21 (stereo unspecified) [BAY-070] | 29.934 | 49.5381 | 49.5158 | 105.274 | 71.6704 | 82.4795 | 106.637 | 95.1305 | 41.8948 | 84.0468 | 78.1822 | 83.7423 |
| C[C@]1(O)C[C@@H](c2nc(-c3ccc4ccc(-c5ccccc5)nc4c3)c3c(N)nccn32)C1 [LINSITINIB] | 53.0716 | 100.619 | 21.1574 | 74.7669 | 41.9562 | 109.271 | 38.702 | 83.4141 | 60.4709 | 65.9185 | 18.406 | 73.2347 |
| COc1cc(C#N)ccc1S(=O)(=O)Nc1ccc2c(c1)cc(C)c(=O)n2C | 94.9001 | 111.598 | 60.6858 | 105.903 | 68.1001 | 108.689 | 83.6696 | 112.833 | 96.6614 | 124.149 | 82.6901 | 95.7551 |
| CCOC(=O)CCNc1cc(N2CCc3ccccc3CC2)nc(-c2ccccn2)n1 | 103.039 | 116.98 | 128.06 | 112.043 | 81.7654 | 97.685 | 98.6348 | 109.679 | 100.893 | 127.032 | 66.9069 | 85.0003 |
| COc1ccc2c(c1)O[C@@H](c1ccc(OC)c(OC)c1)C[C@H]2NC(=O)C1(c2ccc3c(c2)OC(F)(F)O3)CC1 [A-1596586] | 95.9961 | 117.187 | 95.5945 | 101.185 | 96.097 | 118.297 | 94.5524 | 101.637 | 84.3805 | 101.93 | 87.5429 | 80.1817 |
| COc1ccc2c(O[C@@H]3C[C@H]4C(=O)N[C@]5(C(=O)O)CC5/C=C\CCCCC[C@H](NC(=O)OC5CCCC5)C(=O)N4C3)cc(-c3csc(NC(=O)C(C)C)n3)nc2c1C (stereo partly specified) [BI 1230] | 113.549 | 148.301 | 94.169 | 100.65 | 105.071 | 113.929 | 106.581 | 104.774 | 95.5192 | 162.279 | 102.506 | 120.15 |
| CCOCCn1cc(C(=O)Nc2ccc(-n3nc(-c4cccnc4)cc3C(F)(F)F)cn2)ccc1=O [BI 1935] | 92.9458 | 113.636 | 108.149 | 105.749 | 119.66 | 103.733 | 123.828 | 100.697 | 76.3275 | 148.205 | 94.4512 | 98.9549 |
| Cc1cc(C)cc([C@H]2c3cc(C)ccc3NC(=O)CN2C(=O)c2ccc(Br)s2)c1 | 94.0417 | 115.465 | 159.24 | 104.104 | 84.3524 | 110.086 | 124.101 | 91.0337 | 134.503 | 98.7461 | 124.059 | 79.4319 |
| C[C@@H]1CN(c2cc(-c3nn(C)c4ccc(OC5(C)CC5)cc34)ncn2)C[C@H](C)O1 [MLi-2-NC] | 21.8005 | 254.626 | 83.2909 | 98.8275 | 118.993 | 72.3586 | 109.582 | 102.606 | 112.711 | 86.6644 | 122.371 | 89.7102 |
| Cc1c(C(=O)Nc2ccc(Oc3ccnc4[nH]cc(-c5ccccc5)c34)c(F)c2)c(=O)n(-c2ccc(F)cc2)n1C | 73.6786 | 56.2803 | 78.2312 | 39.3734 | 84.4536 | 22.1268 | 155.311 | 25.4653 | 223.97 | 22.9382 | 217.145 | 43.0843 |
| CNC(=O)c1cc(C(=O)NC2CC2)cn(Cc2ccccc2)c1=O [GSK620] | 111.223 | 132.009 | 81.6367 | 131.621 | 179.546 | 145.239 | 105.323 | 134 | 92.6025 | 100.747 | 72.9667 | 110.848 |
| Cn1c(=O)[nH]c2cc(N3C(=O)c4cccc5c(CCCO)ccc(c45)C3=O)ccc21 | 115.119 | 110.623 | 83.0583 | 109.161 | 89.1085 | 114.749 | 98.1543 | 99.5703 | 125.633 | 89.8045 | 109.771 | 112.055 |
| CSc1cccnc1N1CCN(Cc2nc3ccccc3[nH]2)CC1 [A-769] | 120.489 | 139.823 | 101.067 | 109.755 | 93.5096 | 109.84 | 108.274 | 96.7022 | 125.432 | 98.3481 | 117.315 | 102.928 |
| CN(C)CC#Cc1ccc(OCCCc2sc(N3CCc4cccc(C(=O)Nc5nc6ccccc6s5)c4C3)nc2C(=O)O)c(F)c1 [A-1155463] | 0.3385 | 128.541 | 0.4136 | 37.2528 | 48.5807 | 127.556 | 26.2999 | 75.159 | 1.175 | 177.943 | 3.867 | 58.9374 |
| O=C(N[C@H]1CCCCC/C=C\C2C[C@@]2(C(=O)O)NC(=O)[C@@H]2C[C@@H](Oc3ccncc3)CN2C1=O)OC1CCCC1 (stereo partly specified) [BI 1675] | 118.509 | 153.84 | 83.7502 | 91.3607 | 104.235 | 108.175 | 94.4705 | 89.8487 | 103.036 | 110.731 | 113.647 | 94.6025 |
| O=C(Nc1nc2cccc(-c3ccc(CN4CCS(=O)(=O)CC4)cc3)n2n1)C1CC1 [FILGOTINIB] | 100.525 | 92.8016 | 121.161 | 92.1067 | 124.013 | 111.823 | 119.446 | 102.655 | 112.545 | 86.0918 | 106.088 | 87.0807 |
| Cn1nc(C(=O)NCc2ccc(C(=O)O)cc2)cc1-c1ccc2[nH]ccc2c1 [BI 4395] | 92.221 | 114.828 | 85.3335 | 79.5775 | 58.8492 | 93.1183 | 115.617 | 91.6294 | 100.657 | 92.7545 | 82.9051 | 93.5086 |
